According to PubChem BioAssay (NCI):
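Five compound concentrations were applied to cells in 96-well plates for 48 hours; endpoints were derived by simple linear interpolation of the resulting dose-response curve. GI50: concentration for 50% inhibition of growth. At the TGI there is no net growth.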

How the values were obtained:
Experiment in all cases: DTP human tumour cell line panel, 48 h
[1] = test system: OVCAR-3 ovarian
[2] = test system: SNB-75 CNS
[3] = test system: SF-539 CNS
[4] = test system: NCI-H226 lung
[5] = test system: HCC-2998 colon
[6] = test system: CCRF-CEM leukemia
[7] = test system: MOLT-4 leukemia
[8] = test system: MDA-MB-231 breast
[9] = test system: SK-MEL-2 melanoma
[10] = test system: MCF7 breast
[11] = test system: SN12C renal
[12] = test system: HT29 colon
[13] = test system: HOP-62 NSCLC
[14] = test system: T-47D breast
[15] = test system: HS 578T breast
[16] = test system: HCT-15 colon
[17] = test system: HCT-116 colon
[18] = test system: HL-60(TB) leukemia
[19] = test system: SK-MEL-5 melanoma
[20] = test system: SK-OV-3 ovarian
[21] = test system: OVCAR-8 ovarian
[22] = test system: UO-31 renal
[23] = test system: K-562 leukemia
[24] = test system: LOX IMVI melanoma
[25] = test system: NCI-H23 lung
[26] = test system: NCI-H522 lung
[27] = test system: NCI-H460 lung
[28] = test system: SR leukemia
[29] = test system: U251 CNS
[30] = test system: CAKI-1 renal
[31] = test system: UACC-257 melanoma
[32] = test system: MALME-3M melanoma
[33] = test system: M14 melanoma
[34] = test system: DU-145 prostate
[35] = test system: SF-268 CNS
[36] = test system: ACHN renal
[37] = test system: KM12 colon
[38] = test system: SNB-19 CNS
[39] = test system: NCI/ADR-RES ovarian
[40] = test system: SK-MEL-28 melanoma
[41] = test system: COLO 205 colon
[42] = test system: IGROV1 ovarian
[43] = test system: UACC-62 melanoma
[44] = test system: A498 renal
[45] = test system: PC-3 prostate
[46] = test system: HOP-92 NSCLC
[47] = test system: OVCAR-5 ovarian
[48] = test system: EKVX NSCLC
[49] = test system: MDA-MB-435
[50] = test system: SW-620 colon
[51] = test system: RXF 393 renal
[52] = test system: TK-10 renal
[53] = test system: A549 NSCLC
[54] = test system: OVCAR-4 ovarian
[55] = test system: RPMI-8226 leukemia
[56] = test system: BT-549 breast
[57] = test system: SF-295 CNS
[58] = test system: 786-0 renal

COc1ccc2[nH]c(O)c(/C=c3/cc4c(c(-c5cc(OC)c(OC)c(OC)c5)n3)=Nc3ccccc3-4)c2c1
GI50 [1]: 8.48 µM
TGI [1]: > 100 µM
GI50 [2]: 26.7 µM
TGI [2]: > 100 µM
GI50 [3]: 22.6 µM
TGI [3]: > 100 µM
GI50 [4]: > 100 µM
TGI [4]: > 100 µM
GI50 [5]: 34 µM
TGI [5]: > 100 µM
GI50 [6]: 1.41 µM
TGI [6]: 12.4 µM
GI50 [7]: 1.94 µM
TGI [7]: 10.7 µM
GI50 [8]: 0.982 µM
TGI [8]: 36.6 µM
GI50 [9]: 15.9 µM
TGI [9]: > 100 µM
GI50 [10]: 2.11 µM
TGI [10]: > 100 µM
GI50 [11]: 61.2 µM
TGI [11]: > 100 µM
GI50 [12]: 2.41 µM
TGI [12]: 7.05 µM
GI50 [13]: 11.6 µM
TGI [13]: > 100 µM
GI50 [14]: 28.5 µM
TGI [14]: > 100 µM
GI50 [15]: 9.81 µM
TGI [15]: > 100 µM
GI50 [16]: 5.3 µM
TGI [16]: > 100 µM
GI50 [17]: 3.49 µM
TGI [17]: 64.7 µM
GI50 [18]: 7.46 µM
TGI [18]: 34 µM
GI50 [19]: 2.47 µM
TGI [19]: 77.8 µM
GI50 [20]: > 100 µM
TGI [20]: > 100 µM
GI50 [21]: 3.77 µM
TGI [21]: > 100 µM
GI50 [22]: 6.62 µM
TGI [22]: > 100 µM
GI50 [23]: 4.14 µM
TGI [23]: > 100 µM
GI50 [24]: 7.54 µM
TGI [24]: > 100 µM
GI50 [25]: 5.28 µM
TGI [25]: > 100 µM
GI50 [26]: 5.03 µM
TGI [26]: > 100 µM
GI50 [27]: 4.07 µM
TGI [27]: > 100 µM
GI50 [28]: 1.59 µM
TGI [28]: 8.79 µM
GI50 [29]: 3.53 µM
TGI [29]: > 100 µM
GI50 [30]: > 100 µM
TGI [30]: > 100 µM
GI50 [31]: 29.7 µM
TGI [31]: > 100 µM
GI50 [32]: 63.6 µM
TGI [32]: > 100 µM
GI50 [33]: 6.32 µM
TGI [33]: > 100 µM
GI50 [34]: 88.2 µM
TGI [34]: > 100 µM
GI50 [35]: 46.4 µM
TGI [35]: > 100 µM
GI50 [36]: 7.47 µM
TGI [36]: > 100 µM
GI50 [37]: 5.04 µM
TGI [37]: > 100 µM
GI50 [38]: 26 µM
TGI [38]: > 100 µM
GI50 [39]: 3.3 µM
TGI [39]: > 100 µM
GI50 [40]: 26 µM
TGI [40]: > 100 µM
GI50 [41]: 3.67 µM
TGI [41]: 21.5 µM
GI50 [42]: > 100 µM
TGI [42]: > 100 µM
GI50 [43]: 13.6 µM
TGI [43]: > 100 µM
GI50 [44]: 1.7 µM
TGI [44]: 8.72 µM
GI50 [45]: 5.47 µM
TGI [45]: > 100 µM
GI50 [46]: 3.43 µM
TGI [46]: 99.2 µM
GI50 [47]: > 100 µM
TGI [47]: > 100 µM
GI50 [48]: > 100 µM
TGI [48]: > 100 µM
GI50 [49]: 3.48 µM
TGI [49]: > 100 µM
GI50 [50]: 4.96 µM
TGI [50]: > 100 µM
GI50 [51]: 2.41 µM
TGI [51]: 41.9 µM
GI50 [52]: 18.5 µM
TGI [52]: > 100 µM
GI50 [53]: 8.66 µM
TGI [53]: > 100 µM
GI50 [54]: 4.41 µM
TGI [54]: > 100 µM
GI50 [55]: 1.89 µM
TGI [55]: 11.5 µM
GI50 [56]: 5.13 µM
TGI [56]: 83.5 µM
GI50 [57]: 8.97 µM
TGI [57]: > 100 µM

Nc1ccn(C2O[C@H](CO)[C@@H](O)[C@@H]2O)c(=O)n1 (some centres not stated)
TGI [1]: > 100 µM
GI50 [2]: 41.5 µM
TGI [2]: > 100 µM
TGI [3]: > 100 µM
TGI [4]: > 100 µM
GI50 [5]: 68.5 µM
TGI [5]: > 100 µM
GI50 [7]: 16.1 µM
TGI [7]: > 100 µM
TGI [58]: > 100 µM
TGI [8]: > 100 µM
TGI [9]: > 100 µM
GI50 [10]: 27.1 µM
TGI [10]: > 100 µM
TGI [11]: > 100 µM
TGI [12]: > 100 µM
GI50 [13]: 64.3 µM
TGI [13]: > 100 µM
TGI [14]: > 100 µM
TGI [15]: > 100 µM
TGI [16]: > 100 µM
GI50 [17]: 24.2 µM
TGI [17]: > 100 µM
GI50 [18]: > 100 µM
TGI [18]: > 100 µM
TGI [19]: > 100 µM
TGI [20]: > 100 µM
GI50 [21]: 53.8 µM
TGI [21]: > 100 µM
TGI [22]: > 100 µM
TGI [24]: > 100 µM
GI50 [25]: 30.4 µM
TGI [25]: > 100 µM
GI50 [26]: 26.5 µM
TGI [26]: > 100 µM
GI50 [27]: 23 µM
TGI [27]: > 100 µM
GI50 [28]: > 100 µM
TGI [28]: > 100 µM
TGI [29]: > 100 µM
TGI [30]: > 100 µM
TGI [31]: > 100 µM
GI50 [32]: 79.6 µM
TGI [32]: > 100 µM
GI50 [33]: 22.3 µM
TGI [33]: > 100 µM
TGI [34]: > 100 µM
TGI [35]: > 100 µM
GI50 [36]: 42.9 µM
TGI [36]: > 100 µM
TGI [37]: > 100 µM
TGI [38]: > 100 µM
TGI [39]: > 100 µM
TGI [40]: > 100 µM
GI50 [41]: 51.8 µM
TGI [41]: > 100 µM
TGI [42]: > 100 µM
TGI [43]: > 100 µM
TGI [44]: > 100 µM
TGI [45]: > 100 µM
GI50 [46]: 33.8 µM
TGI [46]: > 100 µM
TGI [47]: > 100 µM
TGI [48]: > 100 µM
TGI [49]: > 100 µM
TGI [50]: > 100 µM
TGI [51]: > 100 µM
TGI [52]: > 100 µM
GI50 [53]: 24.6 µM
TGI [53]: > 100 µM
TGI [54]: > 100 µM
TGI [56]: > 100 µM
TGI [57]: > 100 µM
